Like-named read-outs stand apart in the source and are kept apart here.
Test system: HIV-1 (H9/IIIB strain) virus
Assay: microbe, parasite or virus in culture
Assay type: cell-based
Conditions: MT4-GFP cells infected with HIV-1 H9/IIIB, inhibition of reproductive ratio
[1] = Human immunodeficiency virus 1, IIIB, 0% NHS condition (RPMI 1640), read-out: Viking, IC50 (0% NHS)
[2] = 0% NHS condition (RPMI 1640), read-out: Viking, IC50 (0% NHS)
[3] = 100% normal human serum (NHS) condition, read-out: Viking, IC50 (100% NHS)

SMILES | IC50 (100% normal human serum (NHS) condition, 2,2,2-trifluoroacetate, read-out: Viking, IC50 (100% NHS)) [µM] | IC50 [1] [µM] | IC50 [2] [µM] | IC50 [3] [µM]
CN1CCN2CN(CC1)n1cc(C(=O)NCc3c(F)cc(F)cc3F)c(=O)c(O)c1C2=O (single isomer, unassigned) [Example 6A, 9-hydroxy-4-methyl-8,10-dioxo-N-(2,4,6-trifluorobenzyl)-3,4,5,6,8,10-hexahydro-2H-1,7-methanopyrido[1,2-b][1,2,5,8]tetrazecine-11-carboxamide 2,2,2-trifluoroacetate] | 0.169 | 0.00464 | – | –
O=C(NCc1cccc(Cl)c1F)c1cn2c(c(O)c1=O)C(=O)N1CCOCCN2C1 [Example 13B] | – | – | 0.00219 | 0.146
O=C(NCc1ccc(F)cc1F)c1cn2c(c(O)c1=O)C(=O)N1CCCCCCN2C1 (single isomer, unassigned) [Example 3A, N-(2,4-difluorobenzyl)-10-hydroxy-9,11-dioxo-2,3,4,5,6,7,9,11-octahydro-1,8-methanopyrido[1,2-b][1,2,5]triazacycloundecine-12-carboxamide] | – | 0.00266 | – | 0.589
COC1CCN2CN(CC1)n1cc(C(=O)NCc3c(F)ccc(Cl)c3F)c(=O)c(O)c1C2=O (single isomer, unassigned) [Example 19C] | – | – | 0.0035 | 0.245
COC1CCN2CN(CC1)n1cc(C(=O)NCc3cccc(Cl)c3F)c(=O)c(O)c1C2=O (single isomer, unassigned) [Example 18C] | – | – | 0.0032 | 1.87
COC1CCN2CN(CC1)n1cc(C(=O)NCc3ccc(F)c(Cl)c3F)c(=O)c(O)c1C2=O (single isomer, unassigned) [Example 21A] | – | – | 0.0025 | 2.52
COC1CCN2CN(CC1)n1cc(C(=O)NCc3c(F)cc(F)cc3F)c(=O)c(O)c1C2=O (single isomer, unassigned) [Example 5D, 9-hydroxy-4-methoxy-8,10-dioxo-N-(2,4,6-trifluorobenzyl)-3,4,5,6,8,10-hexahydro-2H-1,7-methanopyrido[1,2-b][1,2,5]triazecine-11-carboxamide] | – | – | 0.00532 | 0.543
O=C(NCc1ccc(F)cc1F)c1cn2c(c(O)c1=O)C(=O)N1CCCCN2C1 [Example 2B] | – | – | 0.00153 | 0.234
COC1CCN2CN(CC1)n1cc(C(=O)NCc3ccc(F)c(Cl)c3F)c(=O)c(O)c1C2=O (single isomer, unassigned) [Example 21B] | – | – | 0.0009 | 0.207
O=C(NCc1ccc(F)cc1F)c1cn2c(c(O)c1=O)C(=O)N1CCC(F)(F)CCN2C1 [Example 26B] | – | – | 0.0032 | 0.091
O=C(NCc1c(F)cc(F)cc1F)c1cn2c(c(O)c1=O)C(=O)N1CCCCCN2C1 (single isomer, unassigned) [Example 1B, 9-hydroxy-8,10-dioxo-N-(2,4,6-trifluorobenzyl)-3,4,5,6,8,10-hexahydro-2H-1,7-methanopyrido[1,2-b][1,2,5]triazecine-11-carboxamide] | – | – | 0.001 | 0.0947
COC1CCN2CN(CC1)n1cc(C(=O)NCc3c(F)ccc(Cl)c3F)c(=O)c(O)c1C2=O (single isomer, unassigned) [Example 19D] | – | – | 0.0015 | 0.3
COC1CCN2CN(CC1)n1cc(C(=O)NCc3ccc(F)cc3F)c(=O)c(O)c1C2=O (single isomer, unassigned) [Example 20A] | – | – | 0.0033 | 0.088
O=C(NCc1c(F)ccc(Cl)c1F)c1cn2c(c(O)c1=O)C(=O)N1CCCCCN2C1 [Example 11A] | – | – | 0.00345 | 12.5
COC1CCN2CN(CC1)n1cc(C(=O)NCc3ccc(F)c(Cl)c3F)c(=O)c(O)c1C2=O (single isomer, unassigned) [Example 21C] | – | – | 0.0017 | 0.311
O=C(NCc1cccc(Cl)c1F)c1cn2c(c(O)c1=O)C(=O)N1CCCCCN2C1 [Example 9A] | – | – | 0.00257 | 5.62
O=C(NCc1c(F)ccc(Cl)c1F)c1cn2c(c(O)c1=O)C(=O)N1CCCCCN2C1 [Example 11B] | – | – | 0.00209 | 0.358
CN1CCN2CN(CC1)n1cc(C(=O)NCc3cccc(Cl)c3F)c(=O)c(O)c1C2=O [Example 24B] | – | – | 0.0035 | 0.485
O=C(NCc1c(F)cc(F)cc1F)c1cn2c(c(O)c1=O)C(=O)N1CCC(O)CCN2C1 (single isomer, unassigned) [Example 17D] | – | – | 0.0256 | 0.717
COC1CCN2CN(CC1)n1cc(C(=O)NCc3c(F)cccc3F)c(=O)c(O)c1C2=O (single isomer, unassigned) [Example 22B] | – | – | 0.0016 | 0.161
O=C(NCc1c(F)cc(F)cc1F)c1cn2c(c(O)c1=O)C(=O)N1CCCCCN2C1 (single isomer, unassigned) [Example 1A, 9-hydroxy-8,10-dioxo-N-(2,4,6-trifluorobenzyl)-3,4,5,6,8,10-hexahydro-2H-1,7-methanopyrido[1,2-b][1,2,5]triazecine-11-carboxamide] | – | 0.00198 | – | 2.56
O=C(NCc1ccc(F)c(Cl)c1F)c1cn2c(c(O)c1=O)C(=O)N1CCOCCN2C1 [Example 15A] | – | – | 0.0037 | 10.7
CN1CCN2CN(CC1)n1cc(C(=O)NCc3c(F)ccc(Cl)c3F)c(=O)c(O)c1C2=O [Example 25A] | – | – | 0.0045 | 1
O=C(NCc1c(F)cc(F)cc1F)c1cn2c(c(O)c1=O)C(=O)N1CCC(O)CCN2C1 (single isomer, unassigned) [Example 17B] | – | – | 0.0076 | 0.275
COC1CCN2CN(CC1)n1cc(C(=O)NCc3cccc(F)c3F)c(=O)c(O)c1C2=O (single isomer, unassigned) [Example 23D] | – | – | 0.0019 | 0.567
COC1CCN2CN(CC1)n1cc(C(=O)NCc3cccc(Cl)c3F)c(=O)c(O)c1C2=O (single isomer, unassigned) [Example 18A] | – | – | 0.0031 | 0.279
